Read-outs that look alike come from different tables or passages of the source.
Tests used:
MRGPRX4 = MRGPRX4 (Homo sapiens, UniProt Q96LA9); assay: MRGPRX4 activation, Fluo-8 Ca2+ FLIPR assay in HEK293T cells stably expressing MRGPRX4; type: cell-based; parameters: key to MRGPRX4 activation, Average / MRGPRX4 activation, Ave.: fluorescence change dF/F0; settings: for EC50: MRGPRX4 activation, Ca2+ fluorescence, no activation in tested range reported as III, read-out: Activity (EC50 μM)
In short: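 Response measured as dF/F0: 30 s baseline, then 150 s after compound addition on FLIPR Tetra, in HHBS after 40-60 min room-temperature loading with 2 μM Fluo-8 AM.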

human FXR (NR1H4) = molecular target: T1, human FXR (NR1H4) (Homo sapiens, UniProt Q96RI1); assay: Human FXR (NR1H4) agonist assessment, FXRE-NanoLuc reporter in HEK293T cells; type: cell-based; settings: for EC50: read-out: EC50
T1 sequence (Q96RI1 1-476 isoform Q96RI1-1): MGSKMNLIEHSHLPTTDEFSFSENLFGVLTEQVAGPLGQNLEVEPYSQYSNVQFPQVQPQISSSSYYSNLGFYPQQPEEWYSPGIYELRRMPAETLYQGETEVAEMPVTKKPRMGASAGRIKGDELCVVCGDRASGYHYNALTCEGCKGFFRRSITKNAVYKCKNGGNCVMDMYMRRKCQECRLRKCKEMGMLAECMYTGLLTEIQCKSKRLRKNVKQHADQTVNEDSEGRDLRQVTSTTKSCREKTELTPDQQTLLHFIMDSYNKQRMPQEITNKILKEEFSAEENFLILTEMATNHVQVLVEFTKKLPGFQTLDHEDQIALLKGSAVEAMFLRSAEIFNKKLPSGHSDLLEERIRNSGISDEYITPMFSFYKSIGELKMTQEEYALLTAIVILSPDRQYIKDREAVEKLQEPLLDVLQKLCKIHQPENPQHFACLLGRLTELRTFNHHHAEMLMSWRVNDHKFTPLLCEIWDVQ
In short: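 Read-out was NanoLuc luminescence in culture medium, measured 5 min after adding coelenterazine. Cells were HEK293T stably carrying human FXR and an FXRE reporter, exposed to compound for 24 hr at 37 °C. Vehicle was 0.01% DMSO. EC50 was obtained from sigmoid fits of gradient dilutions.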

[1] = FXR activation, HEK293T FXRE-NanoLuc reporter, 24 hr

Chain of MRGPRX4 (Q96LA9 whole entry): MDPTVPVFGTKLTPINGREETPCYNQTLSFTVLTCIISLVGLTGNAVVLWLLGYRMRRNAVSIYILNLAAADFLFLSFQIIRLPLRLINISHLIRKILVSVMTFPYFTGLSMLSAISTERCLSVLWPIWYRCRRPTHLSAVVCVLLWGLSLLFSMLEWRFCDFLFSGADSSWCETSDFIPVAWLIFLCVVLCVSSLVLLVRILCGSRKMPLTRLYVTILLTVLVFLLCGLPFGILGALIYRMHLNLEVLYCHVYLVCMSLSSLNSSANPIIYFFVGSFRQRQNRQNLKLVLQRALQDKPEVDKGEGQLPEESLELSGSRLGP

Structure (SMILES) | MRGPRX4 activation, fluorescence change (dF/F0), Average (MRGPRX4; Conc. (Log[M]) −4) | MRGPRX4 activation, fluorescence change (dF/F0), Average (MRGPRX4; Conc. (Log[M]) −4.5) | MRGPRX4 activation, fluorescence change (dF/F0), Average (MRGPRX4; Conc. (Log[M]) −5) | MRGPRX4 activation, fluorescence change (dF/F0), Average (MRGPRX4; Conc. (Log[M]) −5.5) | MRGPRX4 activation, fluorescence change (dF/F0), Average (MRGPRX4; Conc. (Log[M]) −6) | MRGPRX4 activation, fluorescence change (dF/F0), Average (MRGPRX4; Conc. (Log[M]) −7) | MRGPRX4 activation, fluorescence change (dF/F0), Average (MRGPRX4; Conc. (Log[M]) −8) | EC50 (MRGPRX4) [µM] | EC50 (human FXR (NR1H4); [1]) [µM] | MRGPRX4 activation, Average (MRGPRX4; E3-9, Conc. (Log[M]) −4.0) | MRGPRX4 activation, Average (MRGPRX4; E3-9, Conc. (Log[M]) −4.5) | MRGPRX4 activation, Average (MRGPRX4; E3-9, Conc. (Log[M]) −5.0) | MRGPRX4 activation, Average (MRGPRX4; E3-9, Conc. (Log[M]) −5.4) | MRGPRX4 activation, Average (MRGPRX4; E3-9, Conc. (Log[M]) −5.9) | MRGPRX4 activation, Average (MRGPRX4; E3-9, Conc. (Log[M]) −6.4) | MRGPRX4 activation, Average (MRGPRX4; E3-9, Conc. (Log[M]) −6.9) | MRGPRX4 activation, Average (MRGPRX4; E3-9, Conc. (Log[M]) −7.3) | MRGPRX4 activation, Average (MRGPRX4; E3-9, Conc. (Log[M]) −7.8) | MRGPRX4 activation, Average (MRGPRX4; E3-9, Conc. (Log[M]) −8.3) | Efficacy (maximum measured induction of NanoLuc, normalized to CDCA set as 100%) (human FXR (NR1H4); [1]) | also measured
CC[C@H]1[C@@H](O)[C@@H]2[C@H](CC[C@]3(C)[C@@H]([C@H](C)CCC(=O)O)CC[C@@H]23)[C@@]2(C)CCCC[C@@H]12 [compound 10] | 0.019 | −0.031 | −0.037 | −0.032 | −0.064 | −0.043 | −0.045 | > 100 | 1 to 10 |  |  |  |  |  |  |  |  |  |  |  | MRGPRX4 activation, fluorescence change (dF/F0), Average (MRGPRX4; Conc. (Log[M]) −9): −0.048; Efficacy (maximum measured induction of NanoLuc, normalized to CDCA set as 100%) (human FXR (NR1H4)): C (key: A: efficacy >400%; B: 300%<efficacy <=400%; C: 100%<efficacy <=300%; D: efficacy <=100%)
[2H]C1CC[C@@]2(C)[C@@H](C1)[C@@H](CC)[C@@H](O)[C@@H]1[C@@H]2CC[C@]2(C)[C@@H]([C@H](C)CCC(=O)O)CC[C@@H]12 (some centres unmarked) [13-1] |  |  |  |  |  |  |  | > 100 | < 1 | 0.104 | −0.009 | 0.013 | 0.013 | 0.018 | 0.015 | 0.018 | 0.013 | 0.010 | 0.013 | C (100%<efficacy <=300%) | 
CC[C@H]1[C@@H](O)[C@@H]2[C@H](CC[C@]3(C)[C@@H]([C@H](C)CCNC(=O)NS(=O)(=O)c4cccc(Cl)c4)CC[C@@H]23)[C@@]2(C)CCCC[C@@H]12 [5-7] | 0.070 | 0.027 | 0.030 | 0.020 | 0.020 | 0.017 |  | > 100 | < 1 |  |  |  |  |  |  |  |  |  |  | B (300%<efficacy <=400%) | 
CC[C@H]1[C@@H](O)[C@@H]2[C@H](CC[C@]3(C)[C@@H]([C@H](C)CCNC(=O)NS(=O)(=O)c4ccc(Br)cc4OC(F)(F)F)CC[C@@H]23)[C@@]2(C)CC[C@H](F)C[C@@H]12 [9-6] |  |  |  |  |  |  |  | > 100 | < 1 | 0.021 | 0.014 | 0.016 | 0.010 | 0.019 | 0.018 | 0.016 | 0.014 | 0.012 | 0.016 | C (100%<efficacy <=300%) | 
CC[C@H]1[C@@H](O)[C@@H]2[C@H](CC[C@]3(C)[C@@H]([C@H](C)CCNC(=O)NS(=O)(=O)c4cc(F)cc(F)c4)CC[C@@H]23)[C@@]2(C)CC[C@H](F)C[C@@H]12 [9-3] |  |  |  |  |  |  |  | > 100 | < 1 | 0.006 | 0.004 | 0.018 | 0.019 | 0.019 | 0.016 | 0.014 | 0.018 | 0.016 | 0.016 | B (300%<efficacy <=400%) | 
CCOC(=O)C(=O)NCC[C@@H](C)[C@H]1CC[C@H]2[C@@H]3[C@H](O)[C@H](CC)[C@@H]4CCCC[C@]4(C)[C@H]3CC[C@]12C [compound 53] |  |  |  |  |  |  |  | > 100 | < 1 | 0.030 | 0.016 | 0.013 | 0.020 | 0.011 | 0.013 | 0.013 | 0.013 | 0.008 | 0.011 | C (100%<efficacy <=300%) | 
CC[C@H]1[C@@H](OC(=O)c2cccc(I)c2)[C@@H]2[C@H](CC[C@]3(C)[C@@H]([C@H](C)CCC(=O)OC)CC[C@@H]23)[C@@]2(C)CCCC[C@@H]12 [1-5] | 0.035 | −0.027 | −0.045 | −0.034 | −0.041 | −0.027 | −0.049 | 50 to 100 | > 10 |  |  |  |  |  |  |  |  |  |  | D (efficacy <=100%) | MRGPRX4 activation, fluorescence change (dF/F0), Average (MRGPRX4; Conc. (Log[M]) −9): −0.084
CC[C@H]1[C@@H](O)[C@@H]2[C@H](CC[C@]3(C)[C@@H]([C@H](C)CCNC(=O)NS(=O)(=O)Cc4ccccc4)CC[C@@H]23)[C@@]2(C)CCCC[C@@H]12 [5-13] |  |  |  |  |  |  |  | > 100 | < 1 |  |  |  |  |  |  |  |  |  |  | C (100%<efficacy <=300%) | MRGPRX4 activation, Average (MRGPRX4; E3-6-2, 1st of 6 concentration columns (head not in rows shown)): 0.060; MRGPRX4 activation, Average (MRGPRX4; E3-6-2, 3rd of 6 concentration columns (head not in rows shown)): 0.030; MRGPRX4 activation, Average (MRGPRX4; E3-6-2, 6th of 6 concentration columns (head not in rows shown)): 0.027; MRGPRX4 activation, Average (MRGPRX4; E3-6-2, concentration not given): 0.017
CC(C[C@@H](C)[C@H]1CC[C@H]2[C@@H]3CC[C@@H]4CCCC[C@]4(C)[C@H]3CC[C@]12C)C(=O)O (some centres unmarked) [2-1] | 0.071 | −0.014 | −0.045 | −0.072 | −0.095 | −0.110 | −0.072 | > 100 | > 10 |  |  |  |  |  |  |  |  |  |  | C (100%<efficacy <=300%) | MRGPRX4 activation, fluorescence change (dF/F0), Average (MRGPRX4; Conc. (Log[M]) −9): −0.091
C[C@]12CC[C@@H](O)C[C@H]1CC[C@@H]1[C@@H]2C[C@H](O)[C@]2(C)[C@@H](CCCCCC(=O)O)CC[C@@H]12 [RC-3] | 0.225 | 0.233 | 0.182 | 0.026 | −0.007 | −0.027 | −0.008 | < 50 | 1 to 10 |  |  |  |  |  |  |  |  |  |  | B (300%<efficacy <=400%) | MRGPRX4 activation, fluorescence change (dF/F0), Average (MRGPRX4; Conc. (Log[M]) −9): −0.013
CC[C@H]1[C@@H](O)[C@@H]2[C@H](CC[C@]3(C)[C@@H]([C@H](C)CCNS(=O)(=O)C4CC4)CC[C@@H]23)[C@@]2(C)CCCC[C@@H]12 [6-5] |  |  |  |  |  |  |  | > 100 | 1 to 10 | 0.025 | 0.020 | 0.018 | 0.020 | 0.018 | 0.016 | 0.018 | 0.016 | 0.020 | 0.018 | C (100%<efficacy <=300%) | 

From patent US20260116910A1, “POLYCYCLIC COMPOUNDS AND METHODS THEREOF” (HEPAITECH (BEIJING) BIOPHARMA TECHNOLOGY CO., LTD., priority 2021, published 2026)
